Results: patent publication US11850235B2, “Preventative effect of mebendazole against malignancies in neurofibromatosis” (priority 2021, dated 2023)

How the values were obtained:
[1] = tested on: NF90-8 cells; assay: Cell proliferation assay (Cell Counting Kit-8), NF90-8; assay type: cell-based; conditions: Homo sapiens, 72 h
Method: (§1) The human NF1-associated MPNST cell line NF90.8 was privately provided and sNF96.2 was purchased from the American Type Culture Collection. […] These cell lines were not authenticated. All cells were tested and found free of mycoplasma contamination. A cell proliferation assay was performed using Cell Counting Kit-8. Cells in 100 μL media in a 96-well plate were incubated with 10 μL of WST-8, a tetrazolium salt, at 37° C. in a tissue culture incubator. Absorbance was measured at 450 nm. Half maximal inhibitory concentrations (IC50s) were determined by incubating cells at a range of concentrations for 72 h and were calculated using the log (inhibitor) vs. response function and non-linear fit. Human MPNST cells NF90-8 and sNF96.2, both derived from NF1 patients, were treated with various MBZ concentrations for 72 h. […] Because NF1-associated tumors are mainly driven by Ras hyperactivation, MBZ's ability to inhibit Ras activity in the NF90-8 cell line was studied by exposing NF90-8 cells to different concentrations of MBZ (0.2 and 1 μM) for 24 h. […] This confirmed the Ras inhibitory effect of MBZ in vitro.

[2] = tested on: pERK; assay: Immunohistochemistry of pERK1/2 and ERK1/2 in tumors of NPcis mice; assay type: in vivo; conditions: sarcomas of NPcis mice, 195 mg/kg diet
Method: Mouse tumors were first fixed by formalin and embedded in paraffin. For hematoxylin & eosin (H&E) staining, the section was de-paraffinized and stained by the standard hematoxylin and eosin procedure to visualize tissue structures. For immunostaining, rabbit anti-Erk1/2 and anti-pErk1/2 antibodies were used. Sections were de-paraffinized using a standard procedure and blocked using 1.9% H2O2 in methanol at room temperature for 10 min. Sections were heated at 100° C. for 20 min in the antigen retrieval citrate solution and blocked by the serum-free protein blocker for 5 min at room temperature. After incubation with the rabbit anti-Erk1/2 or anti-pErk1/2 antibody diluted at 1:50 overnight at 4° C., biotin-conjugated anti-rabbit IgG was applied for 20 min at room temperature, followed by washing and incubation with streptavidin peroxidase for 15 min at room temperature. Antibody binding was visualized by the 3,3′-Diaminobenzidine (DAB) chromogen system. Subsequently, sections were counterstained by hematoxylin. Immunohistochemistry (IHC) quantification of representative tumor tissue sections was carried out with open source software using JPEG files. Mean optical density (OD) was calculated as the log average (maximal intensity/mean intensity) after image processing with color deconvolution and background subtraction. […]

[3] = tested on: GTP-bound Ras in NF90-8 cells; assay: Ras activity assay (Active Ras Detection Kit, GST-Raf1-RBD pull-down); assay type: cell-based, human; conditions: 0.2 and 1 μM, 24 h
Method: A Ras activity assay was performed according to the manufacturer's instructions for the Active Ras Detection Kit. Briefly, cells were lysed with the Lysis/Binding/Wash buffer and pelleted, then the supernatant was used as the cell lysate. In the positive control, 5 μL of 10 mM GTPγS was added to 500 μL of lysates and incubated at 30° C. for 15 min. Cell lysates were incubated with glutathione resin, together with the purified GST-Raf1-RBD protein at 4° C. for 1 h in a spin cup. The resin was washed, and the bound proteins were eluted by incubating with dithiothreitol (DTT)-containing sample buffer at RT for 2 min. Eluted samples were heated and analyzed by anti-Ras Western blotting. Human MPNST cells NF90-8 and sNF96.2, both derived from NF1 patients, were treated with various MBZ concentrations for 72 h. […] Because NF1-associated tumors are mainly driven by Ras hyperactivation, MBZ's ability to inhibit Ras activity in the NF90-8 cell line was studied by exposing NF90-8 cells to different concentrations of MBZ (0.2 and 1 μM) for 24 h. […] This confirmed the Ras inhibitory effect of MBZ in vitro.

[4] = tested on: NPcis (cis Nf1+/-; Tp53+/-) mice; assay: Chemoprevention in NPcis mice (tumor onset, survival, cause of death); assay type: in vivo; conditions: for effect on survival of non-solid malignancy-related and unknown causes of death / effect on overall median survival vs controls / overall median survival: NPcis mice; for effect on survival of non-solid malignancy-related and unknown causes of death: male and female; for effect on overall median survival vs controls: treatment from day 60; for overall median survival: MBZ 195 mg/kg feed, CXB 1000 ppm feed, SUL 160 ppm drinking water; for increase in median survival: 195 mg/kg feed
Description: NPcis (cis Nf1+/−; Tp53+/−) mice in C57BL/6 background (B6;129S2-Trp53tm1Tyj Nf1tm1Tyj/J) were bred by pairing male heterozygous NPcis mice with the female wildtype mice to better generate MPNST animals. Since homozygous Nf1/Tp53 KO mice are embryonically lethal, only heterozygous and wildtype pups were born. Like NF1 patients, NPcis mice spontaneously develop predominantly soft tissue sarcomas including MPNSTs (genetically engineered murine (GEM) PNSTs) and malignant Triton tumors, as well as rhabdomyosarcomas and astrocytomas that severely limit their life expectancy to ˜5 months. The addition of heterozygous Tp53 knock-out (KO) accelerates the cancer development, which mimics the secondary mutations required for the transformation to malignancies such as MPNST, where the second copy of Nf1 is also lost due to the loss of heterozygosity (LOH).
(§2) At day 60 after birth, heterozygous mice were started on the medicated feed or water. The mouse diet consisting of 45 kcal % fat containing soybean oil and lard for fat was used as the control feed. […] Sulindac was added to drinking water at 160 ppm (0.5 mg/day) in 4 mM sodium phosphate buffer as previously described. Animals were palpated weekly for tumors and survival and cause of death were recorded.
In order to investigate the tumor-preventative effects of MBZ, continuous oral administration of MBZ via 195 mg/kg feed was initiated at 60 days after birth, before the formation of any malignancies. Mice were palpated weekly for the presence of any tumors. For the purpose of this study, ‘Solid Malignancies’ were defined as any type of sarcoma and astrocytoma, in addition to neuroblastomas and carcinomas, while ‘Others’ included non-solid malignancies such as lymphomas, leukemias and unknown causes of death.

[5] = tested on: sNF96.2 cells; assay: Cell proliferation assay (Cell Counting Kit-8), sNF96.2; assay type: cell-based; conditions: Homo sapiens, 72 h
Method: as §1

[6] = Dose-dependent toxicity of medicated feed in NPcis mice; assay type: in vivo
Method: as §2
This range was calculated based on previously established maximal dose of 50 mg/kg MBZ via oral gavage and the estimated daily food intake of a mouse. Mice were weighed weekly and examined for signs of toxicity over 4 weeks.

[7] = 195 mg/kg feed from day 60, solid malignancies, male and female combined

Structure (SMILES): COC(=O)Nc1nc2ccc(C(=O)c3ccccc3)cc2[nH]1 [MBZ, mebendazole]
- IC50 [1]: 180 nM
- ERK staining, mean intensity [2]: 0.07
- pERK DAB staining, mean optical density (OD) ([2]; three tumor samples): 0.02
- activated form of GTP-bound Ras [3]: reduced in MBZ-treated NF90-8 cells in a concentration-dependent manner
- delay of tumor occurrence and median mortality vs control [4, 7]: 32 days
- tumor occurrence and median mortality [4, 7]: 192 days
- effect on survival of non-solid malignancy-related and unknown causes of death [4]: did not affect
- effect on overall median survival vs controls [4]: significantly increased
- overall median survival [4]: 199 days
- increase in median survival ([4]; female mice, solid malignancies): 14 days
- increase in median survival ([4]; male mice, solid malignancies): 34.5 days
- reduction in solid cancer-related causes of death ([4]; vs control NPcis mice): ~25%
- IC50 [5]: 320 nM
- tolerability of long-term daily continuous administration ([6]; 195 mg/kg feed, started 60 days after birth, male and female): well tolerated
- signs of toxicity ([6]; 250 and 215 mg/kg diets, over 4 weeks): excessive toxicity
- weight loss ([6]; 250 and 215 mg/kg diets, over 4 weeks, male and female NPcis mice): 10-15%

Structure (SMILES): CC1=C(CC(=O)O)c2cc(F)ccc2/C1=C\c1ccc([S+](C)[O-])cc1 (stereo not shown) [SUL, sulindac]
- effect on survival of non-solid malignancy-related and unknown causes of death [4]: neither SUL nor CXB had an effect
- effect on overall median survival vs controls [4]: failed to demonstrate any effect
- overall median survival [4]: 171.5 days
